Source: patent US9867879B2 (Vanderbilt University, priority 2015, dated 2018)

Experiments:
[1] = test system: S. aureus; assay: Phototherapy: compound plus light, CFU count; format: cell-based
Method: Briefly, S. aureus was incubated with the 882 compound for 30 minutes at 37° C., treated with light for 45 minutes (500 W halogen), and then a colony-forming unit (CFU) count was conducted.

[2] = target: T183K point mutant of hemY (Staphylococcus aureus, UniProt Q2FXA5, T183K); assay: Activation of hemY, T183K mutant; format: biochemical, S. aureus
[3] = target: T1, mammalian PPO (Homo sapiens, UniProt P50336); assay: Activation of mammalian PPO; format: biochemical
T1 sequence (P50336 1-477): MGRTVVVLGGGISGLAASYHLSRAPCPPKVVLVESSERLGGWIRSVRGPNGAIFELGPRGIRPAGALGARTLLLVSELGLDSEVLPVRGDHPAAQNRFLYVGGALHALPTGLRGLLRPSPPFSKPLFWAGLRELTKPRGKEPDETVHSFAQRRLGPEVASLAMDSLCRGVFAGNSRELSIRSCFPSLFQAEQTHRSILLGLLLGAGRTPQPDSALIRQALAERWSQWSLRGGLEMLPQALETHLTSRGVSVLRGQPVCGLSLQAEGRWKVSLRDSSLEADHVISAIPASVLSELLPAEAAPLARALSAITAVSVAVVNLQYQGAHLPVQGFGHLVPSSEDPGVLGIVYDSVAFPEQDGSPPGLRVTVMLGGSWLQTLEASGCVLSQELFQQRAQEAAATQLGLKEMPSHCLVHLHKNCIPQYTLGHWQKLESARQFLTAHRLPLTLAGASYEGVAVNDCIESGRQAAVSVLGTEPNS

[4] = test system: heme biosynthetic pathway; assay: Accumulation of heme precursor molecules; format: cell-based, S. aureus; settings: data not shown
Excerpt: Because ALA is the first committed precursor molecule in the heme biosynthetic pathway, if ALA is contacted with bacteria, the bacteria will generated enhanced amounts of all of the heme precursor molecules downstream of ALA.

[5] = target: hemY/PPO (Bacillus subtilis, UniProt P32397); assay: Activation of hemY/PPO, Bacillus subtilis; format: biochemical
hemY/PPO (Bacillus subtilis, UniProt P32397), sequence (P32397 whole entry): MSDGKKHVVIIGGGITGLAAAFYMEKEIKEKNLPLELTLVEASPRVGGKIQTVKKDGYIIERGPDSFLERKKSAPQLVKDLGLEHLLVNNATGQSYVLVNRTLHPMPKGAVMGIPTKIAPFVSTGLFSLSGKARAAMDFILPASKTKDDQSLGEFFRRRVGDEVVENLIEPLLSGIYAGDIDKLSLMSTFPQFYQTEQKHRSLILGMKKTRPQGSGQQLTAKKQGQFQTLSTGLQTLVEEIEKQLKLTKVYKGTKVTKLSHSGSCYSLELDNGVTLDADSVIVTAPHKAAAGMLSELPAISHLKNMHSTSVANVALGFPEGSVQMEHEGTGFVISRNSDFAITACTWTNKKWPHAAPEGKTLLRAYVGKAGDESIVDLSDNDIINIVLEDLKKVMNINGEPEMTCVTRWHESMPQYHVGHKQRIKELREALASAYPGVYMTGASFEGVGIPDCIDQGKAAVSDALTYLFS

[6] = target: T2, wild type S. aureus hemY (Staphylococcus aureus, UniProt Q2FXA5); assay: Activation of hemY, wild type; format: biochemical
T2 sequence (Q2FXA5 1-466): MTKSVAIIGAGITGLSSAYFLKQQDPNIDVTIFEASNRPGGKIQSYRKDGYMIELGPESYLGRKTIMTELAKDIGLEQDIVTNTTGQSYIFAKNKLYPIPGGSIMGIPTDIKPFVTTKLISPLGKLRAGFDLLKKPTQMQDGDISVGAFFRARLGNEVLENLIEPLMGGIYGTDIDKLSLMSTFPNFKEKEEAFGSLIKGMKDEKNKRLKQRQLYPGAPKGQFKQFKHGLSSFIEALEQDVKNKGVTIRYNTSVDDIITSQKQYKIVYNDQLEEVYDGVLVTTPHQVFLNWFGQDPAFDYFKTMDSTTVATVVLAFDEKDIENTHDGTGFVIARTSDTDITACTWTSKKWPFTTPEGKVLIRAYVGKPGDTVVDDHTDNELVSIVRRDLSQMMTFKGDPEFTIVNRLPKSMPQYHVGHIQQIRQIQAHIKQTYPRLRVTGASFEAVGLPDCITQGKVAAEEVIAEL

[7] = test system: hemY/PPO; assay: Activation of hemY/PPO, Propionibacterium acnes; format: biochemical

Oc1c(-c2cc(-c3ccco3)[nH]n2)ccc2ccccc12 [882 compound]
toxicity with light compared to ALA and light ([1]; 882 50 μM and light vs ALA 10 mg/mL and light): more toxic to the bacteria than ALA | photosensitization ([1]; 30 min at 37° C., light 45 min (500 W halogen), CFU count): leads to staphylococcal photosensitization | activation of hemY [2]: not the T183K point mutant of hemY | activation of PPO [3]: activates | PPIX accumulation [4]: does increase PPIX accumulation | accumulation of PBG [4]: does not | activation of hemY/PPO [5]: activates hemY/PPO in Bacillus subtilis | activation of hemY [6]: activates wild type S. aureus hemY | activation of hemY/PPO [7]: activates
